According to PubChem BioAssay (NCI):
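Results reflect a 48-hour exposure of cells in 96-well plates to compound at five concentrations. TGI denotes the concentration required for complete inhibition of growth.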

Key:
Assay in all cases: NCI anticancer screen, dose series, 48 h
786-0 renal = tested on: 786-0 renal
A498 renal = tested on: A498 renal
A549 NSCLC = tested on: A549 NSCLC
ACHN renal = tested on: ACHN renal
CAKI-1 renal = tested on: CAKI-1 renal
CCRF-CEM leukemia = tested on: CCRF-CEM leukemia
COLO 205 colon = tested on: COLO 205 colon
DLD-1 colon = tested on: DLD-1 colon
DMS 114 small cell lung = tested on: DMS 114 small cell lung
DMS 273 small cell lung = tested on: DMS 273 small cell lung
EKVX NSCLC = tested on: EKVX NSCLC
HCC-2998 colon = tested on: HCC-2998 colon
HCT-116 colon = tested on: HCT-116 colon
HCT-15 colon = tested on: HCT-15 colon
HL-60(TB) leukemia = tested on: HL-60(TB) leukemia
HOP-18 NSCLC = tested on: HOP-18 NSCLC
HOP-92 NSCLC = tested on: HOP-92 NSCLC
HT29 colon = tested on: HT29 colon
IGROV1 ovarian = tested on: IGROV1 ovarian
K-562 leukemia = tested on: K-562 leukemia
KM20L2 colon = tested on: KM20L2 colon
LOX IMVI melanoma = tested on: LOX IMVI melanoma
LXFL 529 NSCLC = tested on: LXFL 529 NSCLC
M14 melanoma = tested on: M14 melanoma
M19-MEL melanoma = tested on: M19-MEL melanoma
MALME-3M melanoma = tested on: MALME-3M melanoma
MOLT-4 leukemia = tested on: MOLT-4 leukemia
NCI-H226 lung = tested on: NCI-H226 lung
NCI-H23 lung = tested on: NCI-H23 lung
NCI-H522 lung = tested on: NCI-H522 lung
OVCAR-3 ovarian = tested on: OVCAR-3 ovarian
OVCAR-4 ovarian = tested on: OVCAR-4 ovarian
OVCAR-8 ovarian = tested on: OVCAR-8 ovarian
RPMI-8226 leukemia = tested on: RPMI-8226 leukemia
RXF 393 renal = tested on: RXF 393 renal
RXF-631 renal = tested on: RXF-631 renal
SF-268 CNS = tested on: SF-268 CNS
SF-295 CNS = tested on: SF-295 CNS
SF-539 CNS = tested on: SF-539 CNS
SK-MEL-28 melanoma = tested on: SK-MEL-28 melanoma
SK-MEL-5 melanoma = tested on: SK-MEL-5 melanoma
SK-OV-3 ovarian = tested on: SK-OV-3 ovarian
SN12C renal = tested on: SN12C renal
SNB-19 CNS = tested on: SNB-19 CNS
SNB-75 CNS = tested on: SNB-75 CNS
SNB-78 CNS = tested on: SNB-78 CNS
SR leukemia = tested on: SR leukemia
SW-620 colon = tested on: SW-620 colon
U251 CNS = tested on: U251 CNS
UACC-257 melanoma = tested on: UACC-257 melanoma
UACC-62 melanoma = tested on: UACC-62 melanoma
UO-31 renal = tested on: UO-31 renal
HOP-62 NSCLC = tested on: HOP-62 NSCLC
KM12 colon = tested on: KM12 colon
NCI-H460 lung = tested on: NCI-H460 lung
OVCAR-5 ovarian = tested on: OVCAR-5 ovarian
TK-10 renal = tested on: TK-10 renal

C/C(=N\NC(C)(C)C)c1sc(-c2nc(C)c(/C(C)=N/NC(C)(C)C)s2)nc1C
TGI (786-0 renal): > 100 µM | TGI (A498 renal): > 100 µM | TGI (A549 NSCLC): > 100 µM | TGI (ACHN renal): > 100 µM | TGI (CAKI-1 renal): > 100 µM | TGI (CCRF-CEM leukemia): > 100 µM | TGI (COLO 205 colon): > 100 µM | TGI (DLD-1 colon): > 100 µM | TGI (DMS 114 small cell lung): > 100 µM | TGI (DMS 273 small cell lung): > 100 µM | TGI (EKVX NSCLC): > 100 µM | TGI (HCC-2998 colon): > 100 µM | TGI (HCT-116 colon): > 100 µM | TGI (HCT-15 colon): > 100 µM | TGI (HL-60(TB) leukemia): > 100 µM | TGI (HOP-18 NSCLC): > 100 µM | TGI (HOP-92 NSCLC): > 100 µM | TGI (HT29 colon): > 100 µM | TGI (IGROV1 ovarian): > 100 µM | TGI (K-562 leukemia): > 100 µM | TGI (KM20L2 colon): > 100 µM | TGI (LOX IMVI melanoma): > 100 µM | TGI (LXFL 529 NSCLC): > 100 µM | TGI (M14 melanoma): > 100 µM | TGI (M19-MEL melanoma): > 100 µM | TGI (MALME-3M melanoma): > 100 µM | TGI (MOLT-4 leukemia): > 100 µM | TGI (NCI-H226 lung): > 100 µM | TGI (NCI-H23 lung): > 100 µM | TGI (NCI-H522 lung): > 100 µM | TGI (OVCAR-3 ovarian): > 100 µM | TGI (OVCAR-4 ovarian): > 100 µM | TGI (OVCAR-8 ovarian): > 100 µM | TGI (RPMI-8226 leukemia): > 100 µM | TGI (RXF 393 renal): > 100 µM | TGI (RXF-631 renal): > 100 µM | TGI (SF-268 CNS): > 100 µM | TGI (SF-295 CNS): > 100 µM | TGI (SF-539 CNS): > 100 µM | TGI (SK-MEL-28 melanoma): > 100 µM | TGI (SK-MEL-5 melanoma): > 100 µM | TGI (SK-OV-3 ovarian): > 100 µM | TGI (SN12C renal): > 100 µM | TGI (SNB-19 CNS): > 100 µM | TGI (SNB-75 CNS): > 100 µM | TGI (SNB-78 CNS): > 100 µM | TGI (SR leukemia): > 100 µM | TGI (SW-620 colon): > 100 µM | TGI (U251 CNS): > 100 µM | TGI (UACC-257 melanoma): > 100 µM | TGI (UACC-62 melanoma): > 100 µM | TGI (UO-31 renal): > 100 µM

O=C(CCc1n[nH]c(=S)o1)Nc1cc(Cl)c(Cl)cc1Cl
TGI (786-0 renal): 63.6 µM | TGI (A498 renal): 91.8 µM | TGI (A549 NSCLC): > 100 µM | TGI (ACHN renal): > 100 µM | TGI (CAKI-1 renal): > 100 µM | TGI (CCRF-CEM leukemia): > 100 µM | TGI (COLO 205 colon): > 100 µM | TGI (DLD-1 colon): 86.3 µM | TGI (DMS 114 small cell lung): > 100 µM | TGI (DMS 273 small cell lung): 72.5 µM | TGI (EKVX NSCLC): > 100 µM | TGI (HCC-2998 colon): > 100 µM | TGI (HCT-116 colon): 30 µM | TGI (HCT-15 colon): 49.9 µM | TGI (HL-60(TB) leukemia): > 100 µM | TGI (HOP-18 NSCLC): > 100 µM | TGI (HOP-62 NSCLC): > 100 µM | TGI (HOP-92 NSCLC): > 100 µM | TGI (HT29 colon): > 100 µM | TGI (IGROV1 ovarian): > 100 µM | TGI (K-562 leukemia): 49 µM | TGI (KM12 colon): > 100 µM | TGI (KM20L2 colon): > 100 µM | TGI (LXFL 529 NSCLC): > 100 µM | TGI (M14 melanoma): > 100 µM | TGI (M19-MEL melanoma): > 100 µM | TGI (MALME-3M melanoma): > 100 µM | TGI (MOLT-4 leukemia): > 100 µM | TGI (NCI-H226 lung): > 100 µM | TGI (NCI-H23 lung): > 100 µM | TGI (NCI-H460 lung): > 100 µM | TGI (NCI-H522 lung): > 100 µM | TGI (OVCAR-3 ovarian): > 100 µM | TGI (OVCAR-4 ovarian): > 100 µM | TGI (OVCAR-5 ovarian): > 100 µM | TGI (OVCAR-8 ovarian): > 100 µM | TGI (RPMI-8226 leukemia): 50.8 µM | TGI (RXF-631 renal): > 100 µM | TGI (SF-268 CNS): > 100 µM | TGI (SF-295 CNS): > 100 µM | TGI (SF-539 CNS): > 100 µM | TGI (SK-MEL-28 melanoma): > 100 µM | TGI (SK-MEL-5 melanoma): > 100 µM | TGI (SK-OV-3 ovarian): > 100 µM | TGI (SN12C renal): > 100 µM | TGI (SNB-19 CNS): > 100 µM | TGI (SNB-75 CNS): > 100 µM | TGI (SNB-78 CNS): > 100 µM | TGI (SW-620 colon): 31.4 µM | TGI (TK-10 renal): > 100 µM | TGI (U251 CNS): > 100 µM | TGI (UACC-257 melanoma): > 100 µM | TGI (UACC-62 melanoma): > 100 µM | TGI (UO-31 renal): > 100 µM
